Source: ChEMBL document CHEMBL5724696, “Autophagy assay results for EUbOPEN Chemogenomics Library” (2024)

Columns and labels:
Type in all cases: functional, Homo sapiens
TERT-RPE1 = experiment: (§1) Here: values are normalized to the negative (DMSO; defined as 0% autophagy induction) and positive (250nM Torin1; mTOR inhibitor; defined as maximal inducer of autophagy = 100%) control compounds and represented as % of autophagy induction. […] The impact of autophagy induction on cells is complex and depends on the affected target. As such, the magnitude of a phenotype may not be equally mirrored in the %-value of autophagy induction and vice versa. The dynamics of the induction may indicate the mode of activation: e.g. activation via phosphorylation or a signaling cascade may occur fast, while activation via transcription factors may take considerably longer. […] Of note, treatment concentrations may be sub-optimal for specific compounds, leading to false negative annotations.; settings: Culturing Media DMEM/F12 (1:1), 1 % Penicillin/Streptomycin, 10% Fetal bovin serum Add-On: No, Screening Media Control DMEM/F12 (1:1), Screening Media Samples DMEM/F12 (1:1)
U2OS [1] = experiment: as §1; settings: Culturing Media DMEM, 1 % Penicillin/Streptomycin, 10% Fetal bovin serum Add-On: No, Screening Media Control DMEM, Screening Media Samples DMEM
U2OS [2] = experiment: as §1; settings: Culturing Media DMEM, 1 % Penicillin/Streptomycin, 10% Fetal bovin serum Add-On: No, Screening Media Control DMEM, Screening Media Samples DMEM; remark: listed apart in the source
[3] = Compound Concentration 0.5 uM, Timepoint 12 hours
[4] = Compound Concentration 0.5 uM, Timepoint 24 hours
[5] = Compound Concentration 0.5 uM, Timepoint 36 hours
[6] = Compound Concentration 0.5 uM, Timepoint 60 hours
[7] = Compound Concentration 2 uM, Timepoint 12 hours
[8] = Compound Concentration 2 uM, Timepoint 24 hours
[9] = Compound Concentration 2 uM, Timepoint 36 hours
[10] = Compound Concentration 2 uM, Timepoint 60 hours
[11] = Compound Concentration 10 uM, Timepoint 12 hours
[12] = Compound Concentration 10 uM, Timepoint 24 hours
[13] = Compound Concentration 10 uM, Timepoint 36 hours
[14] = Compound Concentration 10 uM, Timepoint 60 hours

| Structure (SMILES) | autophagy induction (TERT-RPE1; [3]) | autophagy induction (TERT-RPE1; [4]) | autophagy induction (TERT-RPE1; [5]) | autophagy induction (TERT-RPE1; [6]) | autophagy induction (TERT-RPE1; [7]) | autophagy induction (TERT-RPE1; [8]) | autophagy induction (TERT-RPE1; [9]) | autophagy induction (TERT-RPE1; [10]) | autophagy induction (TERT-RPE1; [11]) | autophagy induction (TERT-RPE1; [12]) | autophagy induction (TERT-RPE1; [13]) | autophagy induction (TERT-RPE1; [14]) | autophagy induction (U2OS [1]; [3]) | autophagy induction (U2OS [1]; [4]) | autophagy induction (U2OS [1]; [5]) | autophagy induction (U2OS [1]; [6]) | autophagy induction (U2OS [1]; [7]) | autophagy induction (U2OS [1]; [8]) | autophagy induction (U2OS [1]; [9]) | autophagy induction (U2OS [1]; [10]) | other results |
| --- | --- | --- | --- | --- | --- | --- | --- | --- | --- | --- | --- | --- | --- | --- | --- | --- | --- | --- | --- | --- | --- |
| N#Cc1cccc(C(=O)Nc2cc(-c3ccccc3)nn2-c2ccccc2)c1 | -7.699% | -6.069% | 3.327% | 19.4837% | -8.111% | -9.075% | -9.172% | -3.858% | -3.603% | -4.896% | -4.571% | -1.999% | -5.641% | -2.328% | -2.122% | -3.431% | 0.2801% | -3.069% | -2.148% | -2.332% | autophagy induction (U2OS [1]; [11]): -0.7756%; autophagy induction (U2OS [1]; [12]): -1.607%; autophagy induction (U2OS [1]; [13]): -0.5457%; autophagy induction (U2OS [1]; [14]): -0.9476%; autophagy induction (U2OS [2]; [3]): 0.2338%; autophagy induction (U2OS [2]; [4]): 1.876%; autophagy induction (U2OS [2]; [5]): 9.199%; autophagy induction (U2OS [2]; [6]): 8.756%; autophagy induction (U2OS [2]; [7]): -6.937%; autophagy induction (U2OS [2]; [8]): -1.593%; autophagy induction (U2OS [2]; [9]): 2.3802%; autophagy induction (U2OS [2]; [10]): -5.115%; autophagy induction (U2OS [2]; [11]): 0.7229%; autophagy induction (U2OS [2]; [12]): 5.625%; autophagy induction (U2OS [2]; [13]): -1.742%; autophagy induction (U2OS [2]; [14]): -2.793% |
| O=C(O)C1CN(Cc2ccc(-c3nc4cc(Cc5ccccc5F)ccc4s3)c(F)c2)C1 | -8.917% | -10.8072% | -9.562% | -5.859% | -8.468% | -9.963% | -11.3812% | -13.3438% | -4.678% | -6.178% | -7.73% | -6.2118% | 4.055% | -0.4566% | -1.32% | -0.5858% | 1.76% | 0.3602% | -0.6521% | -0.7655% | autophagy induction (U2OS [1]; [11]): -1.302%; autophagy induction (U2OS [1]; [12]): -1.781%; autophagy induction (U2OS [1]; [13]): -1.367%; autophagy induction (U2OS [1]; [14]): -0.5842%; autophagy induction (U2OS [2]; [3]): 3.797%; autophagy induction (U2OS [2]; [4]): -4.944%; autophagy induction (U2OS [2]; [5]): -8.688%; autophagy induction (U2OS [2]; [6]): -8.1655%; autophagy induction (U2OS [2]; [7]): 22.0588%; autophagy induction (U2OS [2]; [8]): 16.1887%; autophagy induction (U2OS [2]; [9]): 14.8366%; autophagy induction (U2OS [2]; [10]): 4.458%; autophagy induction (U2OS [2]; [11]): 26.4516%; autophagy induction (U2OS [2]; [12]): 18.766%; autophagy induction (U2OS [2]; [13]): 13.3531%; autophagy induction (U2OS [2]; [14]): 2.726% |
| CCCCN(CCCC)C(=O)CN1C[C@@H](c2ccc3c(c2)OCO3)[C@H](C(=O)O)[C@H]1c1ccc(OC)cc1 | -5.689% | -7.876% | -10.2076% | -16.9579% | -2.05% | -6.33% | -9.375% | -15.3533% | 0.4134% | 0.2558% | -0.8322% | -6.302% | -1.434% | -1.039% | -0.6288% | -0.1138% | -9.274% | -4.861% | -2.29% | -1.949% | autophagy induction (U2OS [1]; [11]): 6.695%; autophagy induction (U2OS [1]; [12]): 2.81%; autophagy induction (U2OS [1]; [13]): 1.829%; autophagy induction (U2OS [1]; [14]): -0.9275%; autophagy induction (U2OS [2]; [3]): -15.0632%; autophagy induction (U2OS [2]; [4]): -6.645%; autophagy induction (U2OS [2]; [5]): -7.125%; autophagy induction (U2OS [2]; [6]): -16.2807%; autophagy induction (U2OS [2]; [7]): -9.31%; autophagy induction (U2OS [2]; [8]): -9.369%; autophagy induction (U2OS [2]; [9]): -11.2096%; autophagy induction (U2OS [2]; [10]): -4.989%; autophagy induction (U2OS [2]; [11]): 9.199%; autophagy induction (U2OS [2]; [12]): 8.705%; autophagy induction (U2OS [2]; [13]): 6.119%; autophagy induction (U2OS [2]; [14]): 4.931% |
